Results from the supplement of paper PMC10307832.

Key:
Assay in all cases: relative viability (nuclei count vs DMSO), 5 days (fraction); higher = more cells survive
[1] = compound: CC1CC(=O)N(C2=CN=C(N=C2N1C3CCCC3)NC4=C(C=C(C=C4)C(=O)NC5CCN(CC5)C)OC)C [NPK76-II-72-1] + CC(=O)c1c(C)c2cnc(Nc3ccc(N4CCNCC4)cn3)nc2n(C2CCCC2)c1=O [Palbociclib] (partner 0.5 µM)
Outline: (§1)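 Medians of duplicate plates are given as relative viability. That measure is the nuclei count in treated wells divided by the count in vehicle wells. Counts were taken on 4× images of lung cancer cell lines in 1536-well plates, 5 days after pin-tool dosing the day after seeding with one drug alone or a fixed anchor-drug dose plus five library-drug doses (not always all listed) in √10 steps.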

[2] = compound: CC1CC(=O)N(C2=CN=C(N=C2N1C3CCCC3)NC4=C(C=C(C=C4)C(=O)NC5CCN(CC5)C)OC)C [NPK76-II-72-1] + C[C@@H](Oc1cc(-c2cnn(C3CCNCC3)c2)cnc1N)c1c(Cl)ccc(F)c1Cl [Crizotinib] (partner 1 µM)
Outline: as §1

[3] = compound: CC[C@@H]1C(=O)N(C)c2cnc(Nc3ccc(C(=O)NC4CCN(C)CC4)cc3OC)nc2N1C1CCCC1 [BI-2536] + CC(C)C[C@H](NC(=O)[C@H](Cc1ccccc1)NC(=O)c1cnccn1)B(O)O [Bortezomib] (partner 0.002 µM)
Outline: as §1

[4] = compound: CC[C@@H]1C(=O)N(C)c2cnc(Nc3ccc(C(=O)NC4CCN(C)CC4)cc3OC)nc2N1C1CCCC1 [BI-2536] + O=C(CCCCCCC(=O)Nc1ccccc1)NO [Vorinostat] (partner 1 µM)
Outline: as §1

| Cell Line | relative viability ([1]; first compound 0.01 µM) | relative viability ([1]; first compound 0.03162 µM) | relative viability ([1]; first compound 0.1 µM) | relative viability ([1]; first compound 0.3162 µM) | relative viability ([1]; first compound 1 µM) | relative viability ([2]; first compound 0.01 µM) | relative viability ([2]; first compound 0.03162 µM) | relative viability ([2]; first compound 0.1 µM) | relative viability ([2]; first compound 0.3162 µM) | relative viability ([2]; first compound 1 µM) | relative viability ([3]; first compound 0.01 µM) | relative viability ([3]; first compound 0.03162 µM) | relative viability ([3]; first compound 0.1 µM) | relative viability ([3]; first compound 0.3162 µM) | relative viability ([3]; first compound 1 µM) | relative viability ([4]; first compound 0.01 µM) | relative viability ([4]; first compound 0.03162 µM) | relative viability ([4]; first compound 0.1 µM) | relative viability ([4]; first compound 0.3162 µM) | relative viability ([4]; first compound 1 µM) |
| --- | --- | --- | --- | --- | --- | --- | --- | --- | --- | --- | --- | --- | --- | --- | --- | --- | --- | --- | --- | --- |
| RERF-LC-KJ | 0.906 | 1.12 | 1.06 | 1.08 | 1.18 | 0.808 | 0.644 | 0.771 | 0.728 | 0.868 | 1.12 | 1.28 | 0.939 | 0.221 | 0.264 | 0.731 | 0.531 | 0.348 | 0.224 | 0.255 |
| SK-LU-1 | 0.374 | 0.374 | 0.371 | 0.35 | 0.417 | 0.812 | 1.07 | 0.93 | 0.859 | 0.981 | 0.978 | 1.12 | 0.465 | 0.201 | 0.174 | 0.727 | 0.643 | 0.271 | 0.247 | 0.247 |
| SW 1573 | 0.35 | 0.486 | 0.399 | 0.371 | 0.387 | 0.637 | 0.891 | 0.77 | 0.686 | 0.912 | 1.12 | 1.15 | 0.967 | 0.14 | 0.152 | 0.677 | 0.437 | 0.101 | 0.0801 | 0.113 |
